Results published in patent publication US12170135B2, “Systems and methods for evaluating query perturbations” (Recursion Pharmaceuticals, Inc., priority 2019, dated 2024).
Entries after “also recorded” stand apart in the source; their conditions may differ.

Assays:
[1] = tested on: Chk2 phosphorylation in ATM knockdown A549 cells; experiment: Western blot for phosphorylated Chk2 in siRNA transfected A549 cells treated with H2O2; type: cell-based; conditions: H2O2 treatment
Procedure: Glucocorticoids are identified by the dashed red polygon 901. […] Western blots probed for ATM and phosphorylated Chk2.
To further validate these compounds, disease-specific studies were performed. In response to DNA damage, ATM stimulates phosphorylation of a host of target proteins, including the checkpoint kinase Chk2. As expected, it was observed that siRNA-mediated knockdown of ATM mRNA in the A549 model cell-line suppressed phosphorylation of Chk2 after H2O2 treatment. Moreover, most glucocorticoids tested restored Chk2 phosphorylation to nearly 50% of control levels, with betamethasone and dexamethasone showing the least rescue (FIG. 9C).

[2] = tested on: Chk2 phosphorylation in primary fibroblasts derived from a patient with A-T; experiment: Western blot for phosphorylated Chk2 in primary fibroblasts from a patient with A-T; type: cell-based, human; conditions: H2O2
[3] = tested on: ATM deficiency in A549 cells; experiment: Cell Painting phenotypic screen on the A-T disease model (on-target/off-target scores); conditions: ATM disease signature, FIG. 9B
Description: (§1) Hits were algorithmically selected based on effect and screened with a higher replicate count in a tertiary screen. […] The length of the wider green bars, such as bar 910, represents changes in individual features of increasing or decreasing magnitude that best represent the ATM disease signature. The impact of each drug on individual features is overlaid in a second, narrower red shaded bar, such as bar 911. […] The order of the features was randomized between individual plots, and individual feature labels are omitted. […] Western blots probed for ATM and phosphorylated Chk2. […] The lower plots represent quantification of phosphorylated Chk2 from the Western Blot, n=3. H=Healthy; *denotes p<0.05, two-sided paired ratio t-test.
(§2) Small molecule compounds were then tested on the A-T disease model using the screening methods described herein.

[4] = tested on: ATM deficiency in A549 cells
Description: as §1, §2

SMN protein = conditions: cell-based assays and patients; cited from earlier work
SMA patients = conditions: clinical trials; cited from earlier work
patients with NF2 = conditions: Phase 2 study; cited from earlier work
[5] = tested on: NF2 deficiency in primary human cells; experiment: Primary drug screens on NF2 loss-of-function model; type: cell-based; conditions: for rescue of NF2 loss-of-function phenotype: primary screen
Description: To identify novel and effective treatments for NF2, a loss-of-function model of the disease in a primary human cells and screened for molecules that rescue the disease-specific phenotype. […] These figures illustrate results from a series of primary drug screens to identify drug candidates for NF2 from a library of approximately 2000 small molecules. Scores for control perturbations (largely clustered in region 1102), test perturbations (largely clustered in region 1104), and query perturbations (largely clustered in region 1106), are shown in the plots. A small number of hits were algorithmically selected based on their effects in the assay and used for further screening.

## C[C@@H]1C[C@H]2[C@@H]3CCC4=CC(=O)C=C[C@]4(C)[C@@]3(Cl)[C@@H](O)C[C@]2(C)[C@@]1(O)C(=O)CCl [mometasone]
[1]
  rescue of Chk2 phosphorylation associated with ATM deficiency: better rescue ATM deficiency
[1]; listed as Mometasone
  rescue of Chk2 phosphorylation associated with ATM deficiency: superior P-Chk2 rescue
[2]
  rescue of Chk2 phosphorylation in primary patient-derived cells: dose-dependent rescue of Chk2 phosphorylation; also recorded: dose-dependent increase in Chk2 phosphorylation
[3]
  impact on the twenty most prominent phenotypic disease features: rescues a subset of features

## C[C@H]1C[C@H]2[C@@H]3CCC4=CC(=O)C=C[C@]4(C)[C@@]3(F)[C@@H](O)C[C@]2(C)[C@@]1(O)C(=O)CO [betamethasone]
[4]
  side effect profile (off-target score) in the screen: greater side effects

## CCCC(CCC)C(=O)O [Valproic acid]
SMN protein
  SMN protein level: increases full length SMN protein
SMA patients
  clinical improvement in SMA: modest clinical improvement

## CS(=O)(=O)CCNCc1ccc(-c2ccc3ncnc(Nc4ccc(OCc5cccc(F)c5)c(Cl)c4)c3c2)o1 [lapatinib]
Patients with NF2
  clinical efficacy in NF2 / meningioma: antitumor activity in a subset of patients
  tolerability in patients with NF2: well tolerated

## CO[C@H]1C[C@@H]2CC[C@@H](C)[C@@](O)(O2)C(=O)C(=O)N2CCCC[C@H]2C(=O)O[C@H]([C@H](C)C[C@@H]2CC[C@@H](OCCO)[C@H](OC)C2)CC(=O)[C@H](C)/C=C(\C)[C@@H](O)[C@@H](OC)C(=O)[C@H](C)C[C@H](C)/C=C/C=C/C=C/1C [everolimus]
[5]
  rescue of NF2 loss-of-function phenotype: minimal efficacy
Patients with NF2
  clinical efficacy in NF2 / meningioma: failed to demonstrate efficacy

## CNC(=O)c1cccc(-c2ccc3c(N4CCOC[C@@H]4C)nc(N4CCOC[C@@H]4C)nc3n2)c1 [AZD2014]
[5]
  side-effect profile in NF2 screen: elevated side-effect profile compared to another highly selective mTOR inhibitor
  rescue of NF2 loss-of-function phenotype: strong rescue

## CCN(CC)CCNC(=O)c1c(C)[nH]c(/C=C2\C(=O)Nc3ccc(F)cc32)c1C [Sunitinib, sunitinib]
[5]
  side-effect profile in NF2 screen: minimal increase in side-effect profile
